From patent publication US20130310256A1, “HERBICIDAL COMPOSITIONS COMPRISING 4-AMINO-3-CHLORO-5-FLUORO-6-(4-CHLORO-2-FLUORO-3-METHOXYPHENYL) PYRIDINE-2-CARBOXYLIC ACID OR A DERIVATIVE THEREOF AND VLCFA AND LIPID SYNTHESIS INHIBITING HERBICIDES” (DOW AGROSCIENCES LLC, priority 2008, published 2013)
“And” between values parts separate entries of the source, which are not always exact repeats. Identical values can stand only once.

Experiments:
CYPRO = experiment: Example II: in-water applied weed control, transplanted paddy rice, greenhouse; format: in vivo, Cyperus rotundus L. (purple nutsedge)
Method in brief: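 Transplanted rice and weeds at the first to fourth true leaf stage in flooded mud pots (pH ~7.6 soil), greenhouse ~29/26 °C, 14 h photoperiod. Compound A (acid equivalent) and VLCFA/lipid-synthesis herbicides (active ingredient) injected into the paddy water in 1.25% crop oil concentrate. Injury scored visually at ~3 weeks versus untreated, 0–100%.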

FIMMI = experiment: as above; format: in vivo, Fimbristylis miliacea (L.) Vahl (globe fringerush); details: for Visual Weed Control FIMMI Obs: 19 DAA
Procedure: Weed seeds or nutlets of the desired test plant species were planted in puddled soil (mud) prepared by mixing a shredded, non-sterilized mineral soil (50.5 percent silt, 25.5 percent clay, and 24 percent sand, with a pH of about 7.6 and an organic matter content of about 2.9 percent) and water at a 1:1 volumetric ratio. The prepared mud was dispensed in 365 mL aliquots into 16-ounce (oz.) non-perforated plastic pots with a surface area of 86.59 square centimeters (cm^2) leaving a headspace of 3 centimeters (cm) in each pot. Mud was allowed to dry overnight prior to planting or transplanting. Rice seeds were planted in Sun Gro MetroMix® 306 planting mixture, which typically has a pH of 6.0 to 6.8 and an organic matter content of about 30 percent, in plastic plug trays. Seedlings at the second or third leaf stage of growth were transplanted into 840 mL of mud contained in 32-oz. non-perforated plastic pots with a surface area of 86.59 cm^2 4 days prior to herbicide application. The paddy was created by filling the headspace of the pots with 2.5 to 3 cm of water. When required to ensure good germination and healthy plants, a fungicide treatment and/or other chemical or physical treatment was applied. The plants were grown for 4-22 days in a greenhouse with an approximate 14 hr photoperiod which was maintained at about 29′C during the day and 26° C. during the night. Nutrients were added as Osmocote® (19:6:12, N:P:K+ minor nutrients) at 2 g per 16-oz. pot and 4 g per 32-oz. pot. Water was added on a regular basis to maintain the paddy flood, and supplemental lighting was provided with overhead metal halide 1000-Watt lamps as necessary. The plants were employed for testing when they reached the first through fourth true leaf stage.
Treatments consisted of the acid or esters of 4-amino-3-chloro-5-fluoro-6-(4-chloro-2-fluoro-3-methoxy-phenyl)pyridine-2-carboxylic acid (compound A) each formulated as an SC (suspension concentrate) and various herbicidal components alone and in combination. Forms of compound A were applied on an acid equivalent basis.
The herbicidal components were applied on an active ingredient basis and included very long chain fatty acid (VLCFA) synthesis-inhibiting and fatty acid/lipid synthesis-inhibiting herbicides acetochlor (technical grade material), acetochlor+dichlormid formulateded as Topnotch®, pretilachlor (technical grade material), butachlor formulated as Butachlor EC, fentrazamide formulated as Fentrazamide EC, thiobencarb formulated as Bolero® 8EC, cafenstrole formulated as Himeadow® WP or Lapost® Flowable, benfuresate formulated as Full Shot®, anilofos (technical grade material), mefenacet (technical grade material), molinate (technical grade material), and thenylchlor (technical grade material).
Treatment requirements for each compound or herbicidal component were calculated based upon the rates being tested, the concentration of active ingredient or acid equivalent in the formulation, an application volume of 2 mL per component per pot, and an application area of 86.59 cm^2 per pot.
For formulated compounds, a measured amount was placed in an individual 100 or 200 mL glass vial and was dissolved in a volume of 1.25% (v/v) Agri-Dex® crop oil concentrate to obtain application solutions.
For technical grade compounds, a weighed amount was placed in an individual 100 to 200 mL glass vial and was dissolved in a volume of acetone to obtain concentrated stock solutions. […] The concentrated stock solutions obtained were diluted with an equivalent volume of an aqueous mixture containing 2.5% (v/v) crop oil concentrate so that the final application solutions contained 1.25% (v/v) crop oil concentrate.
Applications were made by injecting with a pipetter appropriate amounts of the application solutions, individually and sequentially, into the aqueous layer of the paddy. Control plants were treated in the same manner with the solvent blank. […]

CCCOCCN(C(=O)CCl)c1c(CC)cccc1CC [Pretilachlor, 2-chloro-N-(2,6-diethylphenyl)-N-(2-propoxyethyl)acetamide]
Visual Weed Control (%) - 20 DAA CYPRO Obs (CYPRO; 75 gai/ha): 0% | Visual Weed Control (%) - 20 DAA CYPRO Obs (CYPRO; 150 gai/ha): 0% | Visual Weed Control (%) - 20 DAA FIMMI Obs (FIMMI; 75 gai/ha): 40% | Visual Weed Control (%) - 20 DAA FIMMI Obs (FIMMI; 150 gai/ha): 45%

COc1c(Cl)ccc(-c2nc(C(=O)O)c(Cl)c(N)c2F)c1F [Compound A Acid, 4-amino-3-chloro-6-(4-chloro-2-fluoro-3-methoxyphenyl)-5-fluoropyridine-2-carboxylic acid]
Visual Weed Control (%) - 20 DAA CYPRO Obs (CYPRO; 8.75 gae/ha): 0% | Visual Weed Control (%) - 21 DAA CYPRO Obs (CYPRO; 8.75 gae/ha): 0% | Visual Weed Control CYPRO Obs (CYPRO; 8.75 gae/ha, 21 DAA): 0% | Visual Weed Control CYPRO Obs (CYPRO; 17.5 gae/ha, 21 DAA): 20% | Visual Weed Control (%) - 20 DAA CYPRO Obs (CYPRO; 35 gae/ha): 80% and 90% | Visual Weed Control (%) - 20 DAA FIMMI Obs (FIMMI; 8.75 gae/ha): 50%

CCN(CC)C(=O)n1cnc(S(=O)(=O)c2c(C)cc(C)cc2C)n1 [Cafenstrole, N,N-diethyl-3-[(2,4,6-trimethylphenyl)sulfonyl]-1H-1,2,4-triazole-1-carboxamide]
Visual Weed Control CYPRO Obs (CYPRO; 52.5 gai/ha (Himeadow WP), 21 DAA): 0% | Visual Weed Control CYPRO Obs (CYPRO; 52.5 gai/ha (Lapost Flowable), 21 DAA): 0% | Visual Weed Control CYPRO Obs (CYPRO; 105 gai/ha (Himeadow WP), 21 DAA): 0% | Visual Weed Control CYPRO Obs (CYPRO; 105 gai/ha (Lapost Flowable), 21 DAA): 0%

COc1c(Cl)ccc(-c2nc(C(=O)OCc3ccccc3)c(Cl)c(N)c2F)c1F [Compound A Benzyl Ester, benzyl ester of 4-amino-3-chloro-5-fluoro-6-(4-chloro-2-fluoro-3-methoxy-phenyl)pyridine-2-carboxylic acid]
Visual Weed Control (%) - 21 DAA CYPRO Obs (CYPRO; 4.38 gae/ha): 0% | Visual Weed Control CYPRO Obs (CYPRO; 4.38 gae/ha, 20 DAA): 0% | Visual Weed Control CYPRO Obs (CYPRO; 4.38 gae/ha, 21 DAA): 0% | Visual Weed Control CYPRO Obs (CYPRO; 8 gae/ha, 19 DAA): 50% | Visual Weed Control (%) - 20 DAA CYPRO Obs (CYPRO; 8.75 gae/ha): 20% and 30% | Visual Weed Control (%) - 21 DAA CYPRO Obs (CYPRO; 8.75 gae/ha): 30% | Visual Weed Control CYPRO Obs (CYPRO; 8.75 gae/ha, 20 DAA): 20% | Visual Weed Control CYPRO Obs (CYPRO; 8.75 gae/ha, 21 DAA): 30% | Visual Weed Control (%) - 20 DAA CYPRO Obs (CYPRO; 17.5 gae/ha): 95% | Visual Weed Control CYPRO Obs (CYPRO; 17.5 gae/ha, 20 DAA): 95% | Visual Weed Control (%) - 20 DAA FIMMI Obs (FIMMI; 4.38 gae/ha): 30% | Visual Weed Control FIMMI Obs (FIMMI; 8 gae/ha): 0% | Visual Weed Control (%) - 20 DAA FIMMI Obs (FIMMI; 8.75 gae/ha): 60% | Visual Weed Control FIMMI Obs (FIMMI; 16 gae/ha): 0% | Visual Weed Control FIMMI Obs (FIMMI; 32 gae/ha): 85%
